These results are taken from patent publication US20170071976A1, “PHARMACEUTICAL SOLUTION HAVING ANTI-TUMOR EFFECT-ENHANCING AND TOXICITY-REDUCING EFFECT, AND PHARMACEUTICAL COMPOSITION COMPRISING SAME” (priority 2014, published 2017).

Each structure is given as a SMILES string. Read-outs that look alike come from different tables or passages of the source. Marks after values point to notes of the source that are not given here.

Data set [1] relates to superficial bladder cancer (SBC). The note with it: mitomycin dissolved in only a sodium chloride solution, intrabladder perfusion and lavage; cited from earlier work.
In data set [2] the test system is human pancreatic cancer PANC-1 cells inoculated into the peritoneal cavity. In words: Survival of nude mice bearing PANC-1 cells, 42° C. intraperitoneal retention lavage with HP-β-CD or sodium chloride deuterium oxide solution and gemcitabine. The note with it: 42° C. NS 10 ml/kg + gemcitabine 20 mg/kg, i.p. lavage x 5. In kind it is in vivo.
Method: Effect of 42° C. hyperthermicintraperitoneal retention lavage with hydroxypropyl-β-cyclodextrin (HP-β-CD) deuterium oxide solution in combination with gemcitabine (GEM) on the survival of nude mice bearing human pancreatic cancer PANC-1 cell.
Animal: 4 to 5 week-aged male nude mice, provided by Shanghai SIPPR-BK Laboratory Animal Co. Ltd.
Cell lines: human pancreatic cancer PANC-1 cell line was provided by NANJING KEYGEN BIOTECH.
Modeling: 0.2 ml suspension of pancreatic cancer PANC-1 cells containing 1×10^7 cells/ml (2×10^6 cells in total) was inoculated into the peritoneal cavity of the nude mice.
Grouping and dosing: the mouse model was established 7 to 8 days after inoculation into the nude mice, and the mice were randomized with 18 animals/group.
Gemcitabine was separately dissolved in the HP-β-CD deuterium oxide solution at 42° C., and in the sodium chloride deuterium oxide solution at 42° C., for intraperitoneal lavage of tumor-bearing mice.
Blank control group (42° C. sodium chloride physiological solution, 10 ml/kg); 2). Normal chemo group (42° C. sodium chloride physiological solution, 10 ml/kg+gemcitabine 20 mg/kg); 3). Low-dose sodium chloride deuterium oxide solution+gemcitabine group (42° C. sodium chloride deuterium oxide solution, 5 ml/kg+gemcitabine 20 mg/kg); 4). […]
In data set [3] the test system is human lung cancer A549 cells. In words: Cell invasion assayed by Transwell. The class given is cell-based. The note with it: invaded A549 cells, control 178.3 ± 13.8. The method, then: Cell lines: human colon cancer HCT-116 cells and human lung cancer A549 cells were provided by NANJING […] BIOTECH. CO., LTD. […] The cell suspension was centrifuged at 800 to 1,000 rpm for 5 min, and the supernatant was discarded; 1.4. A complete culture medium was added to the cell pellet which was well mixed by gentle pipetting, the cell suspension was transferred to a culture flask, and the cells were cultured by supplementing culture medium. 1. […] After incubation of cells with the test drugs for 24 hours, serum was removed, and the cells were incubated under starvation with an incomplete culture medium for 24 hours; 3. Matrigel was placed at 4° C. in advance to thaw overnight; 4. Thawed Matrigel was 1:1 diluted with the incomplete culture medium, 30 μl diluted Matrigel was added to the upper compartment of Transwell and incubated at 37° C. for 120 min to gel the Matrigel; 5. Cells from different groups were digested, counted, and then adjusted to a density of 1×10^5 cells/ml with the incomplete culture medium, 100 μl cell suspension was added to the upper compartment (small compartment) of Transwell, and 500 μl medium containing 20% FBS was added to the lower compartment of Transwell; 6. A 24-well cell culture plate was placed in an incubator at 37° C. and 5% CO2 to culture the cells for 24 hours; 7. […] The assay was repeated one more time.

For data set [4], the system named is xenograft tumors from human lung cancer A549 cells. The note with it: mouse, in vivo.
Method: (§1) Animal: 6 to 7 week-aged female BALB/c nude mice, each weighing 18 to 20 g, provided by Shanghai SLAC Laboratory Animal Co. Ltd.
(§2) Test drugs: gemcitabine (GEM) and the sodium chloride deuterium oxide solution prepared in Example 1.
(§3) Tumor cells were resuscitated and inoculated, and sterile sodium chloride physiological solution was added thereto to make a cell suspension which was subcutaneously inoculated into the upper right axillary fossa of animals. 5×10^6 tumor cells were inoculated into each animal.
(§4) The diameter of xenograft tumors in the nude mice was measured with a vernier caliper, and 10 days after inoculation, when tumors grew to 100 to 110 cm^3, the animals were randomized with 8 mice per group. Meanwhile drugs were administered by injection into tail vein, once every three days, for 21 successive days. By measuring the tumor diameter, the anti-tumor efficacy of test samples was dynamically observed. Meanwhile the body weight of animals was also recorded to observe the toxicity of the test samples. 21 days after administration, the nude mice were sacrificed, and tumors were harvested by surgery, weighed and photographed.
(§5) 6) Test group 2: gemcitabine (10 mg/kg) diluted in the sodium chloride deuterium oxide solution (10 ml/kg). 7) Test group 3: gemcitabine (10 ml/kg) diluted in the sodium chloride deuterium oxide solution (20 ml/kg).
The subject of data set [5] is human lung cancer A549 cells. In words: Cell cycle by PI single staining (flow cytometry). The class given is cell-based. The note with it: GM 250 nM in NS, 72 hours. The method, then:
Effect of deuterium oxide on the cell cycle of human lung cancer A549 cells and human colon cancer HCT-116 cells Human lung cancer A549 cells and human colon cancer HCT-116 cells were provided by NANJING […] BIOTECH. CO., LTD., and cultured in an incubator at 37° C., 5% CO2 and saturated humidity. A KGA511 Cell cycle assay kit was provided by NANJING […] BIOTECH. CO., LTD. The flow cytometer was FACS Calibur provided by Becton-Dickinson, US. […] The cell suspension was centrifuged at 800 to 1,000 rpm for 5 min, and the supernatant was discarded; 1.4. A complete culture medium was added to the cell pellet which was well mixed by gentle pipetting, the cell suspension was transferred to a culture flask, and the cells were cultured by supplementing culture medium. […] When all the cells became round, an equal volume of culture medium containing serum was added to cease the digestion; 2.4. The cells were blown by pipetting to suspend, then drawn into a 15 ml centrifugal tube, and centrifuged at 1000 rpm for 5 min; 2.5. […] 1. Cells growing in the exponential phase were digested and inoculated to a 6-well plate; on the next day, after the cells attached to the wall, cell culture media containing corresponding test drugs were added according to different groups, and a negative control group was also set; 2. […] The cells were washed with PBS once (centrifuged at 2,000 rpm for 5 min), and 5×10^5 cells were collected; 4. […] In a detection apparatus, red fluorescence with an excitation wavelength of 488 nm was recorded.
Background: In flow cytometry, cells or beads pass a laser one at a time.

The test system of data set [6] is xenograft tumors from human lung cancer A549 cells. Nature of the data set: A549 xenograft in nude mice, intravenous deuterium oxide in combination with gemcitabine. The note with it: for Inhibition (%): tumor weight.
Method: as §1, §2, §3, §4, §5
The test system of data set [7] is xenograft tumors from human breast cancer MCF-7 cells. In words: MCF-7 xenograft in nude mice, intravenous deuterium oxide in combination with gemcitabine. The note with it: for Body weight (g) End, given as change / Body weight (g) Initial / Bone marrow DNA content (OD): mouse, in vivo; for Inhibition (%): tumor weight. The class given is in vivo, BALB/c nude mice. The method, then:
Ltd. Cell lines: human breast cancer MCF-7 cells were provided by NANJING […] BIOTECH. CO., LTD. […] Bone marrow nucleated cells were isolated by a routine method, DNA was extracted from the cells, the OD value was measured in a UV-260 spectrometer as a representative of the DNA content, and inhibition of DNA synthesis by the test samples was observed. The test used 7 groups in total, with 8 animals per group. […] Statistics: the same as Example 21.

[8] abbreviates: GEM(H) 20 mg/kg × 11, tail vein, 20 mg/kg.
The mark [9] stands for this setting: GEM(H) 20 mg/kg × 11, tail vein, listed as gemcitabine, 20 mg/kg.
Where [10] appears, read: GEM(L) 10 mg/kg × 11, tail vein, 10 mg/kg.
[11] abbreviates: GEM(L) 10 mg/kg × 11, tail vein, listed as gemcitabine, 10 mg/kg.
[12] abbreviates: GEM(H) 20 mg/kg × 11, tail vein.

As to `CO[C@@]12[C@H](COC(N)=O)C3=C(C(=O)C(C)=C(N)C3=O)N1C[C@@H]1N[C@@H]12` [mitomycin], the tumor recurrence rate in data set [1] is 78%.

For the compound `Nc1ccn([C@@H]2O[C@H](CO)[C@@H](O)C2(F)F)c(=O)n1` [Gemcitabine, gemcitabine], the “T/C(%)” value in data set [2] was found to be 150.8%. In data set [2] (control 11.8 ± 2.2), the “MST” value is reported as 17.8 ± 1.8 days. Besides, the Number of cells in data set [3] (GEM 1.95 nM) is on record as 160.0 ± 6.6; in data set [3] (GEM 3.9 nM), 112.7 ± 3.5; in data set [3] (GEM 7.8 nM), 59.0 ± 2.0; in data set [3] (GEM 15.6 nM) it was 51.7 ± 3.1; in data set [3] (GEM 31.2 nM), 37.3 ± 2.3; in data set [3] (GEM 62.5 nM), 22.3 ± 0.6. Further, the values for the Number of cells in data set [3] (GEM 125 nM) and in data set [3] (GEM 250 nM) were 16.0 ± 1.0 and 9.7 ± 2.1, respectively. Moreover, the “Body weight (g) End, given as change” value in data set [4] (10 mg/kg) is recorded as “+0.4 g”; in data set [4] (20 mg/kg) it was “+0.5 g”; in data set [7] (10 mg/kg), “+2.9 g”; in data set [7] (20 mg/kg), “+0.9 g”. The “Body weight (g) Initial” value in data set [4] (10 mg/kg) turned out to be 18.0 g; in data set [4] (20 mg/kg), 18.4 g; in data set [7] (10 mg/kg), 18.0 g; in data set [7] (20 mg/kg), 18.1 g. For the same compound, the “G1 Phase” value in data set [5] was 73.73 ± 3.73%. The “G2 Phase” value in data set [5] is given as 10.71 ± 2.39%. Also, in data set [5], the “S Phase” value is reported as 15.55 ± 5.51%. Also, the “Tumor weight” value in data set [6] (setting [8]) was determined as 1.04 ± 0.13 g; in data set [6] (setting [9]), 1.04 ± 0.13 g; in data set [6] (setting [10]), 2.23 ± 0.2 g; in data set [6] (setting [11]), 2.23 ± 0.2 g; in data set [7] (setting [12]), 1.57 ± 0.21 g; in data set [7] (GEM(L) 10 mg/kg × 11, tail vein), 2.48 ± 0.41 g. Also, the “Inhibition (%)” value in data set [6] (setting [8]) is listed as 64.54* %; in data set [6] (setting [9]), 64.54%; in data set [6] (setting [10]) it was 23.64%; in data set [6] (setting [11]) it was 23.6%; in data set [7] (setting [12]), 61.42%*; in data set [7] (setting [10]), 39.06%. In addition, the “Inhibition (%)” value in data set [7] (setting [11]) turned out to be 39.18%. For the same compound, in data set [7] (21 days after administration, gemcitabine 10 mg/kg alone), the tumor volume is recorded as 2.757±0.342 cm^3. In addition, the “T/C (relative tumor growth ratio)” value in data set [7] (gemcitabine 10 mg/kg alone, vs negative control) is listed as 60.39%. The “Bone marrow DNA content (OD)” value in data set [7] (10 mg/kg) is 0.908 ± 0.2543 OD; in data set [7] (20 mg/kg), 0.823 ± 0.1416 OD.
